The record followed here is patent US9283196B1, “Cycloalkyl-diamines for CNS disorders” (MediSynergics, LLC, priority 2013, dated 2016).

In general, Ki refers to a measure of affinity in units of concentration, obtained from inhibition or displacement.

Each structure is given as a SMILES string.

One assay has as its target Sigma-1. Kind of assay: Sigma-1 Ki determination by NIMH PDSP. The assay is classed as binding. The protocol: (§1) The compounds from the above Examples were tested for activity vs. kappa opioid receptors (KOR) and for Sigma-1 activity. Ki determinations were generously provided by the National Institute of Mental Health's Psychoactive Drug Screening Program (PDSP), Contract # HHSN-271-2013-00017-C (NIMH PDSP). The NIMH PDSP is Directed by Bryan L. Roth MD, PhD at the University of North Carolina at Chapel Hill and Project Officer Jamie Driscoll at NIMH, Bethesda Md. U.S.A. Procedures employed by the PDSP are described in the NIMH PDSP Assay Protocol Book, Version II.

Assay [1] has as its target kappa opioid receptors (KOR) (Homo sapiens, UniProt P41145). Kind of assay: kappa opioid receptor (KOR) Ki determination by NIMH PDSP. In kind it is binding. The protocol: as §1

Sequence of kappa opioid receptors (KOR) (P41145 whole entry): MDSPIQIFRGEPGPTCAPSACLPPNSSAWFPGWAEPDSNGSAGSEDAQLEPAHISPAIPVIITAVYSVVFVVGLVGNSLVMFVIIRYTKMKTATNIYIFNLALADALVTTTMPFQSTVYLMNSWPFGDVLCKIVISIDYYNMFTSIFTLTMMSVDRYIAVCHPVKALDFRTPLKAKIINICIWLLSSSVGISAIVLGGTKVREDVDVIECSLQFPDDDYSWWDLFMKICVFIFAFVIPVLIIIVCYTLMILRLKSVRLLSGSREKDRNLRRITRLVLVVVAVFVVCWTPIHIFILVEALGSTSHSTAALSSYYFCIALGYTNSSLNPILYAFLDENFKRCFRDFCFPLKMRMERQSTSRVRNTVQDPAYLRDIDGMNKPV

Turning to `CN[C@@]1(c2ccccc2Cl)CCCC[C@H]1NCCCn1ccnc1` (relative stereo) [Example 12b, Cis-1-(2-chlorophenyl)-N^2-(3-(1-imidazolyl)-propyl)-N^1-methylcyclohexane-1,2-diamine], the Ki is 231 nM on Sigma-1 and more than 1000 nM in assay [1]. For `CN[C@]1(c2ccccc2Cl)CCCC[C@H]1NCCCc1ccccc1` (relative stereo) [Example 15a, Trans-1-(2-chlorophenyl)-N^2-(3-phenylpropyl)-N^1-methylcyclohexane-1,2-diamine] the same measures were 2260 nM and 526 nM. For `CN[C@@]1(c2ccccc2Cl)CCCC[C@H]1NCCCc1ccccc1` (relative stereo) [Example 15b, Cis-1-(2-chlorophenyl)-N^2-(3-phenylpropyl)-N^1-methylcyclohexane-1,2-diamine] the same measures were 177 nM and 139 nM. For `CN[C@@]1(c2ccccc2Cl)CCCC[C@H]1NCCCN1CCOCC1` (relative stereo) [Example 16b], in that order: 17 nM and 798 nM.

On to `CN[C@]1(c2ccccc2Cl)CCCC[C@H]1NCCCN1CCN(C)CC1` (relative stereo) [Example 17a], for which the Ki was 19 nM at Sigma-1 and more than 1000 nM in assay [1]. In the case of `CN[C@@]1(c2ccccc2Cl)CCCC[C@H]1NCCCN1CCN(C)CC1` (relative stereo) [Example 17b], the Ki at Sigma-1 was 72 nM; in assay [1], more than 1000 nM. Consider `CN[C@@]1(c2ccccc2Cl)CCCC[C@H]1NC1CCCCC1` (relative stereo) [Example 18b, Cis-1-(2-chlorophenyl)-N^2-cyclohexyl-N^1-methylcyclohexane-1,2-diamine], for which the Ki in assay [1] is 608 nM. This lies in the sub-micromolar range.
